This note sets out measurements from patent US5677285A, “Derivatives of neuraminic acid” (Fidia S.P.A., priority 1992, dated 1997).

The test relates to C1300 mouse neuroblastoma cells, Neuro-2a clone. The test is described as follows: Neuritogenic activity (cells with neurites, optical microscopy). In kind it is cell-based. How it is done:
C1300 mouse neuroblastoma cells, Neuro-2a clone, (American Cell Type Culture Collection, Bethesda, Md.) were grown at a density of 10,000 cells/well in a culture medium containing Dulbecco's modified Eagle medium (DMEM, Flow), 10% fetal calf serum (FCS, batch IP 02, Seromed), penicillin (100 units per ml, Irvine), and L-glutamine (2 mM, Sigma). Cells were incubated at 37° C. for 24 hours, and medium was removed and substituted with 350 μl of fresh medium plus compounds to be tested.
Tested Compounds and Their Solubilization
Compounds ND35 and ND37 were solubilized at a concentration of 1×10^-2 M in dimethylsulfoxide (1% DMSO). For the different compounds, progressive dilutions in culture medium were performed (concentrations from 1×10^-5 to 1×10^-4 M).
Neuritogenic activity (cell number with neurites, optical microscopy)
Culture plates were incubated with compounds to be tested and analyzed using a phase contrast microscope (250×). Nine fields with prefixed coordinates were chosen and photographed. Then the total number of cells and those with neurites (length at least double the cell diameter) were counted in blind in each photograph. The percentage of cells with neurites was determined after counting of at least 100 cells (Facci L. et al.: Promotion of neuritogenesis in mouse neuroblastoma cells by exogenous ganglioside GM1. J. Neurochem. Raven Press, New York, 299-305,1984).

For the molecule `CCCCCCCCCCCCCCCC(=O)NC1C(O)CC(OCC)(C(=O)NCCCN(C)C)OC1C(O)C(O)CO` (centres unmarked) [ND35, 2-ethylglycoside of N-palmitoyl-neuraminic acid dimethylaminopropylamide], the “Cells with neurities (%)” value reads like this: (1 × 10^-4 M) 39 ± 7%; (1 × 10^-5 M) 7 ± 2%; (2.5 × 10^-5 M) 7 ± 3%; (5 × 10^-5 M) 28 ± 7%. Moreover, the neuritogenesis in vitro result (1×10^-5 to 1×10^-4 M) is “induce neuritogenesis”.
